Reference: patent US11655239B2 (SHANGHAI INSTITUTE OF MATERIAL MEDICA, CHINESE ACADEMY OF …, priority 2019, dated 2023)

Key:
[1] = target: IGF-1R (Homo sapiens (Human), UniProt P08069); test: Enzyme selectivity test (ELISA), IGF-1R; format: biochemical
Description: 1) Enzyme reaction substrate Poly(Glu, Tyr) 4:1 was diluted to 20 μg/mL with potassium-free PBS (10 mM sodium phosphate buffer, 150 mM NaCl, pH 7.2-7.4), and the microtiter plate was coated with 125 μL/well and placed at 37° C. for 12-16 hours of reaction. The liquid in the well was discard. The plate was washed three times with T-PBS (potassium-free PBS containing 0.1% Tween-20, 200 μL/well), 5 minutes each time. The ELISA plate was dried in an oven at 37° C. for 1 to 2 hours.
2) Reaction buffer (50 mM HEPES pH 7.4, 50 mM MgCl2, 0.5 mM MnCl2, 0.2 mM Na3VO4, 1 mM DTT) diluted ATP solution (49 μL) was added to each well, 1 μL of the compound to be tested was added to each well, and then 50 μL of DDR2 kinase domain recombinant protein diluted in the reaction buffer was added to start the reaction. Two control wells without ATP were set in each experiment. The plate placed on a shaker (100 rpm) at 37° C. for 1 hour of reaction. The liquid in the well was discarded and the plate was washed three times with T-PBS.
3) Antibody PY99 dilution solution (the antibody was diluted 1:500 with T-PBS containing BSA 5 mg/mL) was added at 100 μL/well, and shaken on a shaker at 37° C. for 0.5 hour of reaction. The liquid in the well was discarded and the plate was washed three times with T-PBS.
4) Horseradish peroxidase labeled goat anti-murine secondary antibody dilution solution (the antibody is diluted 1:2000 with T-PBS containing BSA 5 mg/ml) was added at 100 μL/well, and shaken on a shaker at 37° C. for 0.5 hour of reaction. The liquid in the well was discarded and the plate was washed three times with T-PBS.
5) 2 mg/ml of OPD color developing solution [diluted with 0.1 M citric acid-sodium citrate buffer (pH=5.4) containing 0.03% H2O2] was added at 100 μL/well and reacted for 1 to 10 minutes at 25° C. in the dark.
6) 2M H2SO4 was added at 50 μL/well to stop the reaction, and a tunable wavelength microplate reader VERSAmax was used for reading at a wavelength of 490 nm.
The IC50 value was obtained by four-parameter regression using the software that came with the microplate reader. […]

[2] = system: lung fibroblast cell line MRC-5; test: Cytotoxic activity test (MTS), MRC-5; format: cell-based, human; conditions: 10 μM
Description: Experimental objective: The cytotoxic activity of compound S15 on bronchial epithelial cell line Beas-2B and lung fibroblast cell line MRC-5 was tested.
1) The human bronchial epithelial cell line Beas-2B and the human embryonic lung fibroblast cell line MRC-5 were collected, and inoculated at a certain density (about 5000-10000 cells) on a 96-well plate (the edge wells were filled with sterile water or PBS). A control was set on each plate (100 μL of culture medium was added);
2) The plate was incubated overnight at 37° C., 5% CO2. The plate was turned upside down and observed under the microscope.
3) The solutions of different concentrations of the compounds to be tested were added to each well, and a control well (culture medium and MTS solution with cells but no drug) and a blank well (without cells, medium and MTS solution) were set, 3 to 5 repetition wells were set for each group. Incubation was performed at 37° C. for 48-72 hours.
4) 10 μL/well of MTS/PMS (20:1, Promega Corp) solution was added to each well containing 100 μL of culture medium, and then the plate was gently shaken. The plate was incubated at 37° C. for 2 to 4 hours.
5) M5 microplate reader (Molecular Device, USA) was used to measure the absorbance of the solution at 490 nm. […]

[3] = system: mouse model of BLM-induced lung injury; test: mRNA levels of inflammatory cytokines in lung tissue (qRT-PCR); format: in vivo; conditions: mice, 30, 60, 90 mg/kg
Description: The experiment used qRT-PCR technology to determine the mRNA levels of pro-inflammatory cytokines in lung tissue. Real-time quantitative PCR was used to detect the mRNA levels of TNF-α, IL-6, IL-1β, TGF-β and others.
About 30 mg of cryopreserved lung tissue was weighed and homogenized and lysed by adding 200 μL of Trizol (Takara, 9109 #). The fluid after the lysis in the well was collected by the RNA sterilization-grade pipette tip and transferred to the corresponding sterile EP tube. […] of chloroform was added, shaken vigorously for 30 sec, and centrifuged for 15 minutes in a centrifuge at 4° C. at 12000 rpm. The upper aqueous layer was transferred to a new EP tube, an equal volume of isopropanol was used to precipitate the RNA in the aqueous phase, and the tube was allowed to stand at −20° C. for more than 1 hr. And then the tube was centrifuged for 15 min at 4° C. at 12000 rpm, and the supernatant was discarded. 75% ethanol was added to wash the RNA pellet, and then the tube was centrifuged for 15 min at 4° C. at 12000 rpm, and the supernatant was discarded. The tube was placed at room temperature for 10-20 min to dry the RNA pellet. 25-200 μL of RNase-free water was added for dissolution and stored at −80° C.
PrimeScript™ RT Master Mix (Takara, RR036A) was selected for mRNA reverse transcription. Please refer to the instructions for the system. […]

Chain of IGF-1R (P08069 31-1367, species assumed): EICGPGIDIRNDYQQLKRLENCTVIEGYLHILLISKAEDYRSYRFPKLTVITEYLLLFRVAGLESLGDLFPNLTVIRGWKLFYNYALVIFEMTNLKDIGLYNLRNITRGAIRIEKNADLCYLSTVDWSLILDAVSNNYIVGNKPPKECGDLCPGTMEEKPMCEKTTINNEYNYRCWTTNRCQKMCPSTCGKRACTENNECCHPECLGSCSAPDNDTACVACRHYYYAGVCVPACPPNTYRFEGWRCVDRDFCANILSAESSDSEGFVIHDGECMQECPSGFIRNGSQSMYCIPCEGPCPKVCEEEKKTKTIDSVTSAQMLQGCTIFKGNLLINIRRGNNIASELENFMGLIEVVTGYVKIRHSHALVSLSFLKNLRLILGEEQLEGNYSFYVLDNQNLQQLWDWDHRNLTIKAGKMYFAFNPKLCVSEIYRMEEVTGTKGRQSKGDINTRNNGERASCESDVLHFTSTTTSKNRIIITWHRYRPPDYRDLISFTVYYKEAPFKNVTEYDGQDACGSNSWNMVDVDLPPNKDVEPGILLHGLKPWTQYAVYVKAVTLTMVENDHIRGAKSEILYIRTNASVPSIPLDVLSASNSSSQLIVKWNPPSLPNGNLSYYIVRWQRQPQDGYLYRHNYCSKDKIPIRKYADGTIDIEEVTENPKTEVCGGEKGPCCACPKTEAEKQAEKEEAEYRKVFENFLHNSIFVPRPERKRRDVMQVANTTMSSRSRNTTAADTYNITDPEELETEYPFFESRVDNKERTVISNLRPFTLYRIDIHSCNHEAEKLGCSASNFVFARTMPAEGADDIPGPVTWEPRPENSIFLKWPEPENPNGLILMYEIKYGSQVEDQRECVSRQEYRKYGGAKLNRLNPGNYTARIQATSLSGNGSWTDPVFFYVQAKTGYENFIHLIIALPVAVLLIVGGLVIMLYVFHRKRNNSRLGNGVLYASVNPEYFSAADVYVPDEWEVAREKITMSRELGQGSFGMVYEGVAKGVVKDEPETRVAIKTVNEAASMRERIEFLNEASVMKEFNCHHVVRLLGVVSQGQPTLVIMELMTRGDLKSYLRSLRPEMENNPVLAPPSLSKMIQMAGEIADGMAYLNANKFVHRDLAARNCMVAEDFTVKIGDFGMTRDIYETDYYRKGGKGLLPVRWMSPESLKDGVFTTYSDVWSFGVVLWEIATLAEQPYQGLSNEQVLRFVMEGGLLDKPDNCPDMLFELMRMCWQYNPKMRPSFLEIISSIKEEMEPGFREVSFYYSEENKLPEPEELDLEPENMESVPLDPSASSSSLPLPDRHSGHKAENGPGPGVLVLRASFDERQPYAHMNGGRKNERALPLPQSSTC

O=C(Nc1cccc(C(F)(F)F)c1)c1ccc(C2CC2)c(-c2ccc3nc(Nc4cnn(C5CC5)c4)ncc3c2)c1 [Compound S15, 4-cyclopropyl-3-(2-((1-cyclopropyl-1H-pyrazol-4-yl)amino)quinazolin-6-yl)-N-(3-(trifluoromethyl)phenyl)benzamide]
IC50 [1]: > 1000 nM
cytotoxic activity on MRC-5 [2]: almost no toxicity
mRNA levels of pro-inflammatory cytokines TNF-α, IL-1β and IL-6 in lung tissue [3]: significantly reduce the levels of pro-inflammatory cytokines in a dose-dependent manner
